In patent US20220323490A1, “PREVENTION OF DISEASES IN HONEYBEES” (Arkema Inc., priority 2019, published 2022):
Entries after “also recorded” stand apart in the source; their conditions may differ. Like-named read-outs stand apart in the source and are kept apart here.

Assays:
[1] = test system: honeybee (Apis mellifera) workers; details: for X3, best estimate of EC5 concentration (Molar hydrogen peroxide): cubic model solution; for EC5 (Percent): percent H2O2 calculated from X3; for Predicted LC50 Log10 Molar (±se) / Predicted LC50 (Molar) / Predicted LC50 (Percent): oral, in 2M sucrose; for Predicted LC50 Log10 Molar (±se): Probit analysis; for Predicted LC50 (Molar): inverse of log10 data; for Predicted LC50 (Percent): percent hydrogen peroxide
Experimental: The twenty-four and forty-eight hour oral lethal concentration (LC50) of formulated hydrogen peroxide (HP) was determined for one-week and two-week old honeybee (Apis mellifera) workers fed a series of solutions of HP diluted in 2 Molar (M) sucrose.
Five hydrogen peroxide (HP) solutions at 4.7, 3.7, 2.7, 1.7, 0.7 M HP in 2 Molar (M) sucrose, and a 0.00 M HP 2M sucrose solution were prepared using 35% food grade hydrogen peroxide, molecular grade sucrose (Sigma Aldrich, USA), and molecular grade water (Sigma Aldrich, USA).
Approximately 200 bees were collected into several wooden cages, supplied with ad libitum HP-free 2M sucrose solution, water, and BeePro® supplemented pollen patty. Experimental trials commenced at seven and fourteen days after newly emerged honeybees were placed in cages.
Following this, an EC5 was calculated by solving the cubic (sigmoidal) model for ‘x’ given an intercept term constrained to zero (concentration) and a ‘y’ value of 0.05.

[2] = Stability of hydrogen peroxide in sugar solution; details: ambient temperature
[3] = one-week old honeybees, 24 Hour
[4] = one-week old honeybees, 48 Hour
[5] = two-week old honeybees, 24 Hour
[6] = two-week old honeybees, 48 Hour

For `OO` [hydrogen peroxide], the “Mean (±se) Mortality” value ([1]; 0.7 Molar H2O2 in 2M sucrose, one-week old honeybees, 24 Hour) was 3.38 (1.38), the “Mean (±se) Mortality” value ([1]; 0.7 Molar H2O2 in 2M sucrose, one-week old honeybees, 48 Hour) was 9.63 (2.23) and the “Mean (±se) Mortality” value ([1]; 0.7 Molar H2O2 in 2M sucrose, two-week old honeybees, 24 Hour) was 7.00 (2.19). For the same molecule, the “Mean (±se) Mortality” value ([1]; 0.7 Molar H2O2 in 2M sucrose, two-week old honeybees, 48 Hour) was 12.75 (1.96), the “Mean (±se) Mortality” value ([1]; 1.7 Molar H2O2 in 2M sucrose, one-week old honeybees, 24 Hour) was 10.25 (1.42) and the “Mean (±se) Mortality” value ([1]; 1.7 Molar H2O2 in 2M sucrose, one-week old honeybees, 48 Hour) was 18.13 (1.06). For the same molecule, the “Mean (±se) Mortality” value ([1]; 1.7 Molar H2O2 in 2M sucrose, two-week old honeybees, 24 Hour) was 12.00 (2.32), the “Mean (±se) Mortality” value ([1]; 1.7 Molar H2O2 in 2M sucrose, two-week old honeybees, 48 Hour) was 16.25 (1.50) and the “Mean (±se) Mortality” value ([1]; 2.7 Molar H2O2 in 2M sucrose, one-week old honeybees, 24 Hour) was 15.63 (1.19). The “Mean (±se) Mortality” value ([1]; 2.7 Molar H2O2 in 2M sucrose, one-week old honeybees, 48 Hour) was 19.88 (1.63), the “Mean (±se) Mortality” value ([1]; 2.7 Molar H2O2 in 2M sucrose, two-week old honeybees, 24 Hour) was 14.13 (2.12) and the “Mean (±se) Mortality” value ([1]; 2.7 Molar H2O2 in 2M sucrose, two-week old honeybees, 48 Hour) was 19.50 (1.00). For the same molecule, the “Mean (±se) Mortality” value ([1]; 3.7 Molar H2O2 in 2M sucrose, one-week old honeybees, 24 Hour) was 15.25 (1.70), the “Mean (±se) Mortality” value ([1]; 3.7 Molar H2O2 in 2M sucrose, one-week old honeybees, 48 Hour) was 21.50 (0.96) and the “Mean (±se) Mortality” value ([1]; 3.7 Molar H2O2 in 2M sucrose, two-week old honeybees, 24 Hour) was 16.63 (1.92). For the same molecule, the “Mean (±se) Mortality” value ([1]; 3.7 Molar H2O2 in 2M sucrose, two-week old honeybees, 48 Hour) was 20.75 (0.53), the “Mean (±se) Mortality” value ([1]; 4.7 Molar H2O2 in 2M sucrose, one-week old honeybees, 24 Hour) was 15.75 (1.53) and the “Mean (±se) Mortality” value ([1]; 4.7 Molar H2O2 in 2M sucrose, one-week old honeybees, 48 Hour) was 21.38 (0.99). For the same molecule, the “Mean (±se) Mortality” value ([1]; 4.7 Molar H2O2 in 2M sucrose, two-week old honeybees, 24 Hour) was 17.88 (1.51), the “Mean (±se) Mortality” value ([1]; 4.7 Molar H2O2 in 2M sucrose, two-week old honeybees, 48 Hour) was 20.13 (1.36) and the “honey bee mortality versus control group” value ([1]; all tested concentrations (0.7-4.7 M HP in 2M sucrose), Wilcoxon multiple comparisons P<0.001) was “significantly greater than mortality of honeybees in control group”. For the same molecule, the “X3, best estimate of EC5 concentration (Molar hydrogen peroxide)” value (shortened to “X3, best estimate of EC5 concentration”) [1, 3] was 0.21 Molar, the “EC5 (Percent)” value [1, 3] was 0.57% and the “X3, best estimate of EC5 concentration” value [1, 4] was 0.15 Molar. The “EC5 (Percent)” value [1, 4] was 0.41%, the “Predicted LC50 Log10 Molar (±se)” value [1, 3] was 0.29 (0.02) Log10 Molar and the “Predicted LC50 (Molar)” value [1, 3] was 1.95 (0.09) Molar. The “Predicted LC50 (Percent)” value [1, 3] was 5.30 (0.25) Percent, the “Predicted LC50 Log10 Molar (±se)” value [1, 4] was −0.10 (0.03) Log10 Molar and the “Predicted LC50 (Molar)” value [1, 4] was 0.79 (0.05) Molar. The “Predicted LC50 (Percent)” value [1, 4] was 2.15 (0.14) Percent, the “Predicted LC50 Log10 Molar (±se)” value [1, 5] was 0.15 (0.03) Log10 Molar and the “Predicted LC50 (Molar)” value [1, 5] was 1.41 (0.10) Molar. The “Predicted LC50 (Percent)” value [1, 5] was 3.84 (0.28) Percent, the “Predicted LC50 Log10 Molar (±se)” value [1, 6] was −0.25 (0.06) Log10 Molar and the “Predicted LC50 (Molar)” value [1, 6] was 0.56 (0.08) Molar. The “Predicted LC50 (Percent)” value [1, 6] was 1.52 (0.22) Percent, the “X3, best estimate of EC5 concentration” value [1, 5] was 0.20 Molar and the “EC5 (Percent)” value [1, 5] was 0.54%. The “X3, best estimate of EC5 concentration” value [1, 6] was 0.15 Molar, the “EC5 (Percent)” value [1, 6] was 0.41% and the “Stability (degradation) of hydrogen peroxide in sugar solution” value ([2]; 0.1% and 1.0% H2O2 in 50% (w/w) sucrose, over 7 weeks) was “No degradation; also recorded: stable in a sugar solution”. For the same molecule, the “Hydrogen peroxide concentration in sugar solution” value (“Hydrogen peroxide concentration” for short) ([2]; nominal 0.1% H2O2 in 50% (w/w) sucrose, 10 days) was 0.134, the “Hydrogen peroxide concentration” value ([2]; nominal 0.1% H2O2 in 50% (w/w) sucrose, 27 days) was 0.134 and the “Hydrogen peroxide concentration” value ([2]; nominal 0.1% H2O2 in 50% (w/w) sucrose, 51 days) was 0.130. For the same molecule, the “Hydrogen peroxide concentration” value ([2]; nominal 0.1% H2O2 in 50% (w/w) sucrose, time 0) was 0.134, the “Hydrogen peroxide concentration” value ([2]; nominal 1.0% H2O2 in 50% (w/w) sucrose, 10 days) was 1.089 and the “Hydrogen peroxide concentration” value ([2]; nominal 1.0% H2O2 in 50% (w/w) sucrose, 27 days) was 1.058. The “Hydrogen peroxide concentration” value ([2]; nominal 1.0% H2O2 in 50% (w/w) sucrose, 51 days) was 1.089 and the “Hydrogen peroxide concentration” value ([2]; nominal 1.0% H2O2 in 50% (w/w) sucrose, time 0) was 1.077.
